Source: patent US20230116972A1, “CD38 MODULATORS AND METHODS OF USE THEREOF” (Cytokinetics, Inc., priority 2021, published 2023)

Key:
human CD38 = target: T1, human CD38 (Homo sapiens, UniProt P28907); test: human recombinant CD38 enzyme assay (hydrolysis of NAD+); format: biochemical; details: human recombinant CD38, 0.4 nM enzyme, 62.5 μM NAD+; read-out: hCD38 BioChem IC50
T1 sequence (P28907 1-300): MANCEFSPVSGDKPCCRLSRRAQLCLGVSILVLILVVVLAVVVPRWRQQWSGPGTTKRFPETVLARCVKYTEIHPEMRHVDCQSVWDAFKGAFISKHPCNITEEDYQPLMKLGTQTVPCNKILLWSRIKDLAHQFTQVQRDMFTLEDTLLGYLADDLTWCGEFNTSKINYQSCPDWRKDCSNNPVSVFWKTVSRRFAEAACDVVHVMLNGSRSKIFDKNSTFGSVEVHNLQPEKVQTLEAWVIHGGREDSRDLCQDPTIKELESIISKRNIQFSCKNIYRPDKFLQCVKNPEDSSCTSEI
Summary of the method: (§1)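 Inhibitors were titrated against purified CD38 hydrolysing NAD+ for 60 min at ambient temperature. Unconsumed substrate was quantified enzymatically via NADH-coupled resazurin reduction and fluorescence.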

mouse CD38 = target: T2, mouse CD38 (Mus musculus, UniProt P56528); test: mouse recombinant CD38 enzyme assay (hydrolysis of NAD+); format: biochemical; details: read-out: mCD38 BioChem IC50
T2 sequence (P56528 1-304): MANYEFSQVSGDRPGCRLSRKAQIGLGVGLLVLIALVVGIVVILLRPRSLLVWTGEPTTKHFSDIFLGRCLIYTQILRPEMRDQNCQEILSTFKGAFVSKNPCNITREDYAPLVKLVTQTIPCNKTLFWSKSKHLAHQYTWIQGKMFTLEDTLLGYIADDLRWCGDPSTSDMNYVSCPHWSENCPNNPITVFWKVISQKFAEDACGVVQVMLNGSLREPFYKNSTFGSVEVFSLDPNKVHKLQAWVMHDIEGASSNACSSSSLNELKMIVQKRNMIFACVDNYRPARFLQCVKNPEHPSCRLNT
Summary of the method: as §1

[1] = target: T3, endogenous CD38 in HL60 cells (Homo sapiens, UniProt P28907); test: cellular CD38 assay in HL60 cells (cellular NAD levels); format: cell-based; details: all-trans retinoic acid, 24 hours, read-out: hCD38 HL60 ATRA NAD Cell Diaphorase IC50
T3 construct: endogenous in cells; host or cells: HL60 (leukemic cells, treated with all-trans retinoic acid)
T3 sequence (P28907 1-300): T1 sequence (P28907 1-300)
Summary of the method: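 HL60 cells (20000/well) were treated with compound in DMSO for 24 h. Cellular NAD was then measured by an enzymatic cycling mix (alcohol dehydrogenase, diaphorase, 40 uM resazurin, 10 uM FMN, 3% ethanol, Triton X-100, pH 8.4).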

Row | Structure (SMILES) | IC50 (human CD38) [nM] | IC50 (mouse CD38) [nM] | IC50 [1] [nM]
1 | O=C(N[C@H]1CC[C@H](O)CC1)c1cccc(-n2ccnc2)n1 [Compound 30, N-(4-hydroxycyclohexyl)-6-(1H-imidazol-1-yl)picolinamide] | 85 | 14 | 2830
2 | COc1ccc(NC(=O)c2cccc(-n3ccnc3)n2)cn1 [Compound 25, 6-(1H-imidazol-1-yl)-N-(6-methoxypyridin-3-yl)picolinamide] | 13 | 13 | 468
3 | Cn1cncc1-c1ccnc(C(=O)N[C@H]2C[C@H](c3ccc(F)cc3F)C2)n1 [Compound 243, N-((1r,3r)-3-(2,4-difluorophenyl)cyclobutyl)-4-(1-methyl-1H-imidazol-5-yl)pyrimidine-2-carboxamide] | 28.1 | 14.6 | 3720
4 | CO[C@H]1CC[C@H](NC(=O)c2cc(C3CCOCC3)nc(-n3ccnc3)n2)CC1 [Compound 193, 2-(1H-imidazol-1-yl)-N-((1r,4r)-4-methoxycyclohexyl)-6-(tetrahydro-2H-pyran-4-yl)pyrimidine-4-carboxamide] | 131 | 39.8 | 11100
5 | O=C(N[C@H]1CC[C@H](C(F)(F)F)CC1)c1ccnc(-n2ccnc2)n1 [Compound 79, 2-(1H-imidazol-1-yl)-N-((1r,4r)-4-(trifluoromethyl)cyclohexyl)pyrimidine-4-carboxamide] | 21 | 12 | 2330
6 | CCO[C@H]1CC[C@H](NC(=O)c2nccc(-c3cncn3C)n2)CC1 [Compound 255, N-((1r,4r)-4-ethoxycyclohexyl)-4-(1-methyl-1H-imidazol-5-yl)pyrimidine-2-carboxamide] | 71.5 | 28.7 | 2760
7 | O=C(Nc1cccnc1)c1cncc(-n2ccnc2)n1 [Compound 56, 6-(1H-imidazol-1-yl)-N-(pyridin-3-yl)pyrazine-2-carboxamide] | 5 | 6 | 263
8 | Cn1cncc1-c1cnc(N)c(C(=O)Nc2ccc(C(F)(F)F)nc2)n1 [Compound 314, 3-amino-6-(1-methyl-1H-imidazol-5-yl)-N-(6-(trifluoromethyl)pyridin-3-yl)pyrazine-2-carboxamide] | 8.9 | 7.5 | 1370
9 | Cc1ccc(C(=O)Nc2cccnc2)nc1-n1ccnc1 [Compound 22, 6-(1H-imidazol-1-yl)-5-methyl-N-(pyridin-3-yl)picolinamide] | 496 | 70 | 802
10 | Cn1cncc1-c1ccnc(C(=O)N[C@H]2C[C@H](Oc3ccccc3)C2)n1 [Compound 220, 4-(1-methyl-1H-imidazol-5-yl)-N-((1r,3r)-3-phenoxycyclobutyl)pyrimidine-2-carboxamide] | 146 | 52.2 | 4950
11 | O=C(N[C@H]1CC[C@H](C(F)F)CC1)c1cc(C2CC2)nc(-n2ccnc2)n1 [Compound 161, 6-cyclopropyl-N-((1r,4r)-4-(difluoromethyl)cyclohexyl)-2-(1H-imidazol-1-yl)pyrimidine-4-carboxamide] | 26 | 4 | 2450
12 | O=C(Nc1ccc(C(F)(F)F)nc1)c1cccc(-n2ccnc2)n1 [Compound 13, 6-(1H-imidazol-1-yl)-N-(6-(trifluoromethyl)pyridin-3-yl)picolinamide] | 6 | 8 | 568
13 | O=C(Nc1ccccc1F)c1cccc(-n2ccnc2)n1 [Compound 17, N-(2-fluorophenyl)-6-(1H-imidazol-1-yl)picolinamide] | 67 | 27 | 1400
14 | Cn1cncc1-c1ccnc(C(=O)Nc2ccc(C(F)F)nc2)n1 [Compound 147, N-(6-(difluoromethyl)pyridin-3-yl)-4-(1-methyl-1H-imidazol-5-yl)pyrimidine-2-carboxamide] | 2 | 6 | 151
15 | O=C(Nc1cccnc1)c1cccc(-n2ccnc2)c1 [Compound 9, 3-(1H-imidazol-1-yl)-N-(pyridin-3-yl)benzamide] | 1240 | 432 | 5980
16 | Cc1cc(C(=O)N[C@H]2CC[C@H](C(F)F)CC2)nc(-n2ccnc2)c1 [Compound 97, N-(4-(difluoromethyl)cyclohexyl)-6-(1H-imidazol-1-yl)-4-methylpicolinamide] | 24 | 3 | 1530
17 | COc1cc(C(=O)Nc2ccc(C(F)(F)F)nc2)nc(-n2ccnc2)c1 [Compound 221, 6-(1H-imidazol-1-yl)-4-methoxy-N-(6-(trifluoromethyl)pyridin-3-yl)picolinamide] | 3.6 | 2.2 | 1130
18 | O=C(N[C@H]1CCN(c2ccccc2)C1)c1nccc(-n2ccnc2)n1 [Compound 247, (S)-4-(1H-imidazol-1-yl)-N-(1-phenylpyrrolidin-3-yl)pyrimidine-2-carboxamide] | 233 | 139 | 14400

Results, then the molecule that gave them:

Row | IC50 (human CD38) [nM] | IC50 (mouse CD38) [nM] | IC50 [1] [nM] | Structure (SMILES)
19 | 93.5 | 31.2 | 3670 | Cn1cncc1-c1ccnc(C(=O)N[C@H]2CC[C@H](C(C)(C)O)CC2)n1 [Compound 254, N-((1r,4r)-4-(2-hydroxypropan-2-yl)cyclohexyl)-4-(1-methyl-1H-imidazol-5-yl)pyrimidine-2-carboxamide]
20 | 16.2 | 4.7 | 3880 | Cn1cncc1-c1nc(C(=O)N[C@H]2CCc3c(F)cccc32)cc(C2CCOCC2)n1 [Compound 228, (S)-N-(4-fluoro-2,3-dihydro-1H-inden-1-yl)-2-(1-methyl-1H-imidazol-5-yl)-6-(tetrahydro-2H-pyran-4-yl)pyrimidine-4-carboxamide]
21 | 129 | 38 | 5490 | CO[C@H]1CC[C@H](NC(=O)c2cc(C(F)(F)F)nc(-n3ccnc3)n2)CC1 [Compound 111, 2-(1H-imidazol-1-yl)-N-((1r,4r)-4-methoxycyclohexyl)-6-(trifluoromethyl)pyrimidine-4-carboxamide]
22 | 106 | 10 | 4740 | CO[C@H]1CC[C@H](NC(=O)c2cc(C)cc(-c3cncn3C)n2)CC1 [Compound 98, N-(4-methoxycyclohexyl)-4-methyl-6-(1-methyl-1H-imidazol-5-yl)picolinamide]
23 | 15.7 | 1.6 | 2120 | Cn1cncc1-c1nc(C(=O)N[C@H]2CC[C@H](NCC(F)(F)F)CC2)cc(C2CCOCC2)n1 [Compound 300, 2-(1-methyl-1H-imidazol-5-yl)-6-(tetrahydro-2H-pyran-4-yl)-N-((1r,4r)-4-((2,2,2-trifluoroethyl)amino)cyclohexyl) pyrimidine-4-carboxamide]
24 | 4.3 | 1.7 | 1460 | Cn1cncc1-c1nc(C(=O)N[C@H]2C[C@H](c3ccccc3)C2)cc(C2CCOCC2)n1 [Compound 230, 2-(1-methyl-1H-imidazol-5-yl)-N-((1r,3r)-3-phenylcyclobutyl)-6-(tetrahydro-2H-pyran-4-yl)pyrimidine-4-carboxamide]
25 | 11 | 1 | 3150 | Cn1cncc1-c1nc(C(=O)NC2CC3(C2)CC(F)(F)C3)cc(C(F)(F)F)n1 [Compound 154, N-(6,6-difluorospiro[3.3]heptan-2-yl)-2-(1-methyl-1H-imidazol-5-yl)-6-(trifluoromethyl)pyrimidine-4-carboxamide]
26 | 14 | 1 | 1970 | CO[C@H]1CC[C@H](NC(=O)c2cc(C(F)(F)F)nc(-c3cncn3C)n2)CC1 [Compound 151, N-((1r,4r)-4-methoxycyclohexyl)-2-(1-methyl-1H-imidazol-5-yl)-6-(trifluoromethyl)pyrimidine-4-carboxamide]
27 | 7 | 2 | 765 | Cn1cncc1-c1nccc(C(=O)N[C@H]2CC[C@H](C)CC2)n1 [Compound 85, 2-(1-methyl-1H-imidazol-5-yl)-N-((1r,4r)-4-methylcyclohexyl)pyrimidine-4-carboxamide]
28 | 161 | 12.1 | 7870 | CO[C@H]1CC[C@H](NC(=O)c2nc(-c3cncn3C)cc(C3CC3)n2)CC1 [Compound 203, 4-cyclopropyl-N-((1r,4r)-4-methoxycyclohexyl)-6-(1-methyl-1H-imidazol-5-yl)pyrimidine-2-carboxamide]
